As usually defined, the IC50 is the concentration needed to halve the response being measured. Higher therefore signals lower potency.

The values that follow come from ChEMBL document CHEMBL1152405, “Bis-anthracenyl isoxazolyl amides have enhanced anticancer activity” (Bioorg Med Chem Lett, 2009).

The subject of this test is SNB-19. The test is described as follows: Antitumor activity against human SNB19 cells after 24 hrs. In kind it is functional, cell-based. The following applies: SNB-19, 24 h.

On to `Cc1onc(-c2c3ccccc3c(Cl)c3ccccc23)c1C(=O)Nc1cc(C(=O)NCCCN(C)C)n(C)c1`, for which it took 6.21 µM to reach half-maximal inhibition (IC50).
